# From PMC11874377, “Fungal-derived methyldeoxaphomins target Plasmodium falciparum segregation through the inhibition of PfActin1” (Proceedings of the National Academy of Sciences of the …, 2025)
# Read-outs that look alike come from different tables or passages of the source.
# Assays:
# Dd2-Pol δ parent line = assay: Resistant parasite phenotyping and cross resistance, SYBR green I EC50 assay, parent line; type: cell-based, Plasmodium falciparum; conditions: strain Dd2-Pol δ -parent, read-out: EC50 (mean ± SEM)
# Procedure: (§1) Cloning by limiting dilution was then performed to isolate individual lines from the bulk population. Due to the multiple mutations identified in the first biological replicate, we isolated four clones from this bulk culture as compared to two clones each from the second and third replicates. These clones were phenotyped via a SYBR green I-based dose–response assay (Table 2 and Fig. 2B). […] The DNA of these clones was then extracted and subjected to whole-genome sequencing.
# (§2) Resistant parasite phenotyping and cross resistance measurement
# (§3) The EC50 assay was performed at 1% parasitemia, 1% hematocrit with SYBR green I in 96-well plates. The highest final concentration of the methyldeoxaphomin NPDG-F was set at 100 μM. Briefly, the compound was subjected to a 3-fold serial dilution with ten dilution points. Three technical replicates were set up at each dilution point. The Dd2-Pol δ parent line and the resistant parasites at 2% hematocrit and 1% parasitemia were added to the drug media at 1:1 ratio. The plate was incubated at 37°C for 72 hours in a chamber filled with a hypoxic gas mixture (3% oxygen, 5% carbon dioxide, and 92% nitrogen). After incubation, the cells were lysis with lysis buffer (20 mM Tris-HCL, 0.08% saponin, 5 mM EDTA, and 0.8% Triton X-100) containing SYBR green I (10,000X, Thermo Fisher, cat # S7563) overnight. Fluorescence was measured at 485nm excitation and 530nm emission using a PHERAstar FSX plate reader (BMG Labtech, Germany). Dose response curves were graphed with Prism 9 Version 9.5.1.
# 3D structural analysis of the mutations and docking studies
# The crystal structure of PfActin1 with accession number 6TU4 (resolution 2.60 Ang) (Vahokoski et al., 2022) was obtained from the Protein Data Bank (PDB). This structure of PfActin1 contains ligands Jasplakinolide and ADP with a coordinating magnesium ion.
# Only chain A was used for the docking experiment. […] Schrodinger maestro software (Schrödinger, LLC) was used to build NPDG-F with the proper stereochemistry using the x-ray structure determined for analog NPDG-A (vide supra). […]
# [1] = tested on: in vitro evolved NPDG-F-resistant Dd2-Pol δ clones (PfActin1 mutations); assay: Resistant parasite phenotyping and cross resistance, SYBR green I EC50 assay, NPDG-F-resistant clones; type: cell-based, Plasmodium falciparum; conditions: for EC50: read-out: EC50 (mean ± SEM)
# Procedure: as §1
# To investigate whether NPDG-F has the same mode of action as cytochalasin D, we tested our clones for sensitivity to both cytochalasin D and jasplakinolide.
# as §2
# as §3, with “9.5.1. […]” for “9.5.1.”
# P. falciparum = assay: Isobologram assay with NPDG-F; type: cell-based, Plasmodium falciparum
# Procedure: To further explore the relationship of NPDG-F with established actin-interfering drugs, an isobologram study was performed (Fig. 3). NPDG-F was added in combination with four inhibtors known to interfere with actin polymerization including a formin inhibitor SMIFH2, cofilin inhibitor SZ-3, F-actin targeting compound jasplakinolide, and G-actin targeting latrunculin B. The frontline antimalarial DHA was also added as a nonactin inhibitor control. After dose–response curves were generated (Fig. 3A), the fractional inhibitory concentrations (FICs) of NPDG-F and the combination drug were calculated and graphed. […]
# Plasmodium blood stage culture
# Parasite culture in the Chakrabarti lab was maintained following a modified Trager and Jensen protocol (Trager & Jensen, 1976) as previously described (Lee et al., 2021) with RPMI 1640 with 25 mM HEPES pH 7.4, 26 mM NaHCO3, 15 mg/L hypoxanthine, 0.5% Albumax II, 25 mg/L gentamycin, and 2% dextrose. Parasites were grown with human A+ erythrocytes obtained from Florida OneBlood. Cultures were kept in an incubator with 5% […]
# Antiplasmodial activity screening
# SYBR Green I-based fluorescence assay was performed as previously described (Lee et al., 2021) following protocols by Smilkstein et. al. (Smilkstein et al., 2004). Asynchronous Dd2 parasites were added to serially diluted compounds and incubated for 72 h at 5% CO2, 95% air at 37°C. Plates were then frozen at -80°C, thawed, and incubated for one hour with 1x SYBR Green I in a lysis buffer (20 mM Tris-HCL, 0.08% saponin, 5 mM EDTA, and 0.8% Triton X-100). Fluorescence was then read on a Synergy Neo2 multimode reader (BioTek Winsooki, VT). Compound dose response curves and EC50 determination was performed using CDD Vault normalized to 10 µM CQ and vehicle […]
# For isobologram assessment, inhibitors were tested using a 1:2 dilution with starting concentrations selected as 40 nM for DHA, 100 µM Latrunculin B, 100 µM SMIFH2, and 40 nM for jasplakinolide. These concentrations were selected to provide 2-3 points above […]
# EC50s. The test inhibitor methyldeoxaphomin NPDG-F was then added in combination with the aforementioned inhibitors at concentrations ranging from 10 to 0.3125 µM. Dose-response curves were then generated for the available conditions where EC50s could be determined. The fractional inhibitor concentration of both compounds was then determined as described (Fivelman et al., 2004) for the available points and graphed on a scale of 0-1 also using Graphpad Prism version 10. […]
# barbed end of F-actin = conditions: read-out: binding affinity Kd; cited from earlier work
compound,measurement,setting,value
"C/C1=C\[C@H](C)C[C@H](C)OC(=O)C[C@H](c2ccc(O)cc2)NC(=O)[C@@H](Cc2c(Br)[nH]c3ccccc23)N(C)C(=O)[C@H](C)NC(=O)[C@@H](C)C1 [Jasplakinolide, jasplakinolide]",EC50,Dd2-Pol δ parent line,25.1 ± 1.4 nM
same,EC50,"[1]; clone 1-C7, A171S (8%), A171V (92%), I290L",25.2 ± 0.4 nM
same,Fold change,[1]; clone 1-C7 vs Dd2-Pol δ parent,1.0
same,EC50,"[1]; clone 1-D6, A171S (3%), A171V (97%), I290L",27.6 ± 4 nM
same,Fold change,[1]; clone 1-D6 vs Dd2-Pol δ parent,1.1
same,EC50,"[1]; clone 1-D7, A171S (22%), A171V (78%), I290L",25.9 ± 0.8 nM
same,Fold change,[1]; clone 1-D7 vs Dd2-Pol δ parent,1.0
same,EC50,"[1]; clone 1-F3, A171S (4%), A171V (96%), I290L",30.7 ± 3.2 nM
same,Fold change,[1]; clone 1-F3 vs Dd2-Pol δ parent,1.2
same,EC50,"[1]; clone 2-C4, A136S",22.4 nM
same,Fold change,[1]; clone 2-C4 vs Dd2-Pol δ parent,0.9
same,EC50,"[1]; clone 2-F5, A136S",25.1 ± 2.9 nM
same,Fold change,[1]; clone 2-F5 vs Dd2-Pol δ parent,1.0
same,EC50,"[1]; clone 3-C3, A136S",24 nM
same,Fold change,[1]; clone 3-C3 vs Dd2-Pol δ parent,1.0
same,EC50,"[1]; clone 3-C5, A136S",25.4 ± 2.1 nM
same,Fold change,[1]; clone 3-C5 vs Dd2-Pol δ parent,1.0
same,fractional inhibitory concentration (FIC),P. falciparum; combination with NPDG-F,highest FIC values overall
same,IC50,"P. falciparum; single compounds, dose–response, Fig. 3A, read-out: Mean IC50 ± SEM",58 ± 17 nM
"C=C1[C@@H](C)[C@H]2[C@H](Cc3ccccc3)NC(=O)[C@]23[C@H](OC(C)=O)/C=C/[C@@](C)(O)C(=O)[C@@H](C)C/C=C/[C@H]3[C@@H]1O [Cytochalasin D, cytochalasin D]",EC50,Dd2-Pol δ parent line; Plasmodium falciparum,17.3 ± 0.5 nM
same,Kd,barbed end of F-actin,~2 nM
same,cross-resistance of NPDG-F-resistant clones,[1],cross-resistant
same,"average EC50 shift, clones from flasks 2 and 3",[1]; A136S,3.9 fold
same,"average EC50 shift, clones from flask 1",[1]; A171V/S and I290L clones,20 fold
same,EC50,"[1]; Plasmodium falciparum, DD2, clone 1-C7, A171S (8%), A171V (92%), I290L",302 ± 8.8 nM
same,EC50,"[1]; Plasmodium falciparum, DD2, clone 1-D6, A171S (3%), A171V (97%), I290L",317 ± 9.2 nM
same,EC50,"[1]; Plasmodium falciparum, DD2, clone 1-D7, A171S (22%), A171V (78%), I290L",402 ± 7 nM
same,EC50,"[1]; Plasmodium falciparum, DD2, clone 1-F3, A171S (4%), A171V (96%), I290L",367 ± 7.8 nM
same,EC50,"[1]; Plasmodium falciparum, DD2, clone 2-C4, A136S",60.8 ± 0.8 nM
same,EC50,"[1]; Plasmodium falciparum, DD2, clone 2-F5, A136S",71.3 ± 1.7 nM
same,EC50,"[1]; Plasmodium falciparum, DD2, clone 3-C3, A136S",66.4 ± 0.2 nM
same,EC50,"[1]; Plasmodium falciparum, DD2, clone 3-C5, A136S",73.2 ± 0.7 nM
same,Fold change,[1]; clone 1-C7 vs Dd2-Pol δ parent,17.5
same,Fold change,[1]; clone 1-D6 vs Dd2-Pol δ parent,18.3
same,Fold change,[1]; clone 1-D7 vs Dd2-Pol δ parent,23.3
same,Fold change,[1]; clone 1-F3 vs Dd2-Pol δ parent,21.2
same,Fold change,[1]; clone 2-C4 vs Dd2-Pol δ parent,3.5
same,Fold change,[1]; clone 2-F5 vs Dd2-Pol δ parent,4.1
same,Fold change,[1]; clone 3-C3 vs Dd2-Pol δ parent,3.8
same,Fold change,[1]; clone 3-C5 vs Dd2-Pol δ parent,4.2
